Reference: patent US20240350467A1, “[6R]-MTHF IN B6 ENHANCED 5-FU BASED CHEMOTHERAPY OF PANCREATIC CANCER” (Isofol Medical AB, priority 2023, published 2024)
Like-named read-outs stand apart in the source and are kept apart here.

Tests used:
[1] = [6R]-MTHF levels after arfolitixorin versus comparable leucovorin treatment; assay type: in vivo
Excerpt: Leucovorin and l-leucovorin, both currently approved for treatment of gastrointestinal and other cancers, need to be metabolically activated to [6R]-MTHF to potentiate the effect of 5-FU. This dependency on cellular activation provides a hurdle for reaching sufficient levels of the active [6R]-MTHF. […] Secondly, the enzymatic activation is genetically regulated^16,18, and is therefore associated with variability between individuals and conditions. Arfolitoxirin is believed to be efficacious in a larger proportion of patients with less inter- and intra-individual variability. These differences may potentially turn out to be of significant importance for increased clinical efficacy in 5-FU based cancer treatment.

[2] = Stability of [6R]-5,10-MTHF forms; assay type: physicochemical
Excerpt: Arfolitixorin (former Modufolin®) is a folate-based biomodulator developed by applicant to improve the outcome of a range of antimetabolite treatments used within oncology. One of the therapeutic areas of specific interest included in the development program of arfolitixorin is as biomodulator of 5-fluorouracil (5-FU) activity in standard treatment regime for advanced, metastatic CRC, such as Stage IV. A stable lyophilizate formulation of the naturally occurring diastereoisomeric folate [6R]-5,10-MTHF has successfully been made from the drug substance arfolitixorin hemisulfate. […] As mentioned in the background section of the present application, [6R]-5,10-methylenetetrahydrofolate, abbreviated herein as [6R]-5,10-MTHF, needs to be metabolically formed when using the widely used folate-based drugs leucovorin and levoleucovorin.

[3] = cited from earlier work
[4] = cited from earlier work; remark: listed apart in the source
[5] = in vivo; cited from earlier work
[6] = system: metastatic pancreatic cancer; details: PRODIGE 4, 342 patients enrolled; cited from earlier work
[7] = system: metastatic pancreatic cancer; details: MPACT study; cited from earlier work
[8] = system: metastatic pancreatic cancer; details: standard first-line treatment until 2011; cited from earlier work
[9] = in vitro; cited from earlier work

Molecule: Nc1nc2c(c(=O)[nH]1)N1CN(c3ccc(C(=O)N[C@@H](CCC(=O)O)C(=O)O)cc3)C[C@H]1CN2 [Arfolitixorin, [6R]-5,10-methylenetetrahydrofolate]
- [6R]-MTHF levels relative to comparable treatment with leucovorin [1]: 3-4 times
- stability [2]: very unstable

Molecule: Cc1ncc(CO)c(CO)c1O.Cl [Pyridoxine hydrochloride]
- solubility in water [3]: One gram dissolves in 5 mL of water
- stability in air ([4]; air): stable in air
- stability to sunlight ([4]; sunlight): slowly affected by sunlight

Molecule: Nc1nc2c(c(=O)[nH]1)N1CN(c3ccc(C(=O)N[C@@H](CCC(=O)O)C(=O)O)cc3)C[C@H]1CN2.Nc1nc2c(c(=O)[nH]1)N1CN(c3ccc(C(=O)N[C@@H](CCC(=O)O)C(=O)O)cc3)C[C@H]1CN2.O=S(=O)(O)O [arfolitixorin hemisulfate]
- stability [2]: unexpectedly stable salt

Molecule: Nc1nc2c(c(=O)[nH]1)N(C=O)[C@H](CNc1ccc(C(=O)N[C@@H](CCC(=O)O)C(=O)O)cc1)CN2 [d-LV]
- excretion by the kidneys [5]: slowly excreted

Molecule: Nc1ccn([C@@H]2O[C@H](CO)[C@@H](O)C2(F)F)c(=O)n1 [gemcitabine]
- median overall survival (mOS) [6]: 6.8 months
- objective response rate (ORR) [6]: 9.4%
- ORR [7]: 7%
- mOS [7]: 6.7 months
- median overall survival (mOS) [8]: about 6 months

Molecule: Nc1nc(=O)c2c([nH]1)NC[C@H](CNc1ccc(C(=O)N[C@@H](CCC(=O)O)C(=O)O)cc1)N2C=O [l-LV, [6S]-5-formyl-THF]
- conversion to methyl-tetrahydrofolate form [9]: rapidly converted

Molecule: FOLFIRINOX
- median overall survival (mOS) [6]: 11.1 months
- objective response rate (ORR) [6]: 31.6%
